Test results: BindingDB's records for doi:10.1016/j.bmcl.2006.03.030 (Gsk, 2006)

target: Transient receptor potential cation channel subfamily V member 1 (Homo sapiens, UniProt Q8NER1); experiment: FLIPR (Fluorescence Imaging Plate Reader)-Based Ca2+ Assay; conditions: pH 7.2; 25 °C
Method: One day before the assay was performed, human TRPV1 expressed in 1321N1 astrocytoma cells were plated onto 96-well assay plates and grown until 2.5 h before the assay, and the cells were loaded with the Ca2+ reporter dye Fluo3-AM for 2 h at room temperature. After this, the cells were washed, and continuously being incubated for 30 min with medium containing test compounds at a range of different concentrations. The plates were then placed into a FLIPR to monitor fluorescence (excitation @ 488 nm and emission @540 nm) before and after the addition of capsaicin, antagonist potency was determined versus an EC80 concentration of capsaicin that was determined empirically on the day of the experiment.

Chain of Transient receptor potential cation channel subfamily V member 1 (Q8NER1 whole entry): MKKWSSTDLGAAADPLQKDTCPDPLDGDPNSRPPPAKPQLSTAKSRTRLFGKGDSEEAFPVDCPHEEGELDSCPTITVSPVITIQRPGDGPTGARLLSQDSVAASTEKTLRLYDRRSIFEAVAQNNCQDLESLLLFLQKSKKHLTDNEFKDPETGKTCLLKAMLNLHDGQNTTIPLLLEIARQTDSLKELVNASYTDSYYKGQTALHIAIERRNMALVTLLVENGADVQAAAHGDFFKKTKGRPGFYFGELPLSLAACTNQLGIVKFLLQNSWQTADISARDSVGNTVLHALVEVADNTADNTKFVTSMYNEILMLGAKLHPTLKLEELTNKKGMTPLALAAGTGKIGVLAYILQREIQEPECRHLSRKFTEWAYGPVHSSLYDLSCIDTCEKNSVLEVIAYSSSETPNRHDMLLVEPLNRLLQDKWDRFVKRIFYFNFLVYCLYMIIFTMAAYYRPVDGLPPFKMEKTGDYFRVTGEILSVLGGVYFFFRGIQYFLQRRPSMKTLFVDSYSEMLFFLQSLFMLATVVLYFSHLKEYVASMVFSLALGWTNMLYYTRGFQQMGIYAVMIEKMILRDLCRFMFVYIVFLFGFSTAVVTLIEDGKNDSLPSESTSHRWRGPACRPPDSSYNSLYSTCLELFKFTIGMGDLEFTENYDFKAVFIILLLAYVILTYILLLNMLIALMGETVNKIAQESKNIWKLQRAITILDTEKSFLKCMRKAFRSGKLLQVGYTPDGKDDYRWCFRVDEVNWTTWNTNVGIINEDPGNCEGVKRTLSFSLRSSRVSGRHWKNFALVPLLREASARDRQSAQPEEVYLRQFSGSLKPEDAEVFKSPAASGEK

SMILES | EC50 [nM]
O=C(NCCN1CCc2ccccc21)Nc1ccccc1Br [1-(2-bromophenyl)-3-[2-(2,3-dihydro-1H-indol-1-yl)ethyl]urea] | 158
O=C(NCCN1CCc2c(F)cccc21)Nc1ccccc1Br [1-(2-bromophenyl)-3-[2-(4-fluoro-2,3-dihydro-1H-indol-1-yl)ethyl]urea] | 40
Cc1cccc2c1CCN2CCNC(=O)Nc1ccccc1Br [1-(2-bromophenyl)-3-[2-(4-methyl-2,3-dihydro-1H-indol-1-yl)ethyl]urea] | 40
O=C(NCCN1CCc2cc(F)ccc21)Nc1ccccc1Br [1-(2-bromophenyl)-3-[2-(5-fluoro-2,3-dihydro-1H-indol-1-yl)ethyl]urea] | 79
Cc1ccc2c(c1)CCN2CCNC(=O)Nc1ccccc1Br [1-(2-bromophenyl)-3-[2-(5-methyl-2,3-dihydro-1H-indol-1-yl)ethyl]urea] | 50
O=C(Nc1ccccc1Br)N[C@@H]1CCN(c2ccc(F)c(F)c2)C1 [1-(2-bromophenyl)-3-[(3R)-1-(3,4-difluorophenyl)pyrrolidin-3-yl]urea] | 8
Cc1ccc(N2CC[C@@H](NC(=O)Nc3ccccc3Br)C2)cc1F [1-(2-bromophenyl)-3-[(3R)-1-(3-fluoro-4-methylphenyl)pyrrolidin-3-yl]urea] | 5
O=C(Nc1ccccc1Br)N[C@@H]1CCN(c2cccc(F)c2)C1 [1-(2-bromophenyl)-3-[(3R)-1-(3-fluorophenyl)pyrrolidin-3-yl]urea] | 16
Cc1cccc(N2CC[C@@H](NC(=O)Nc3ccccc3Br)C2)c1 [1-(2-bromophenyl)-3-[(3R)-1-(3-methylphenyl)pyrrolidin-3-yl]urea] | 20
O=C(Nc1ccccc1Br)N[C@@H]1CCN(c2ccc(Br)cn2)C1 [1-(2-bromophenyl)-3-[(3R)-1-(5-bromopyridin-2-yl)pyrrolidin-3-yl]urea] | 63
O=C(Nc1ccccc1Br)N[C@@H]1CCN(c2ccc(Cl)cn2)C1 [1-(2-bromophenyl)-3-[(3R)-1-(5-chloropyridin-2-yl)pyrrolidin-3-yl]urea] | 50
N#Cc1ccc(N2CC[C@@H](NC(=O)Nc3ccccc3Br)C2)nc1 [1-(2-bromophenyl)-3-[(3R)-1-(5-cyanopyridin-2-yl)pyrrolidin-3-yl]urea] | 200
Cc1ccc(N2CC[C@@H](NC(=O)Nc3ccccc3Br)C2)nc1 [1-(2-bromophenyl)-3-[(3R)-1-(5-methylpyridin-2-yl)pyrrolidin-3-yl]urea] | > 200
O=C(Nc1ccccc1Br)N[C@@H]1CCN(c2ccccn2)C1 [1-(2-bromophenyl)-3-[(3R)-1-(pyridin-2-yl)pyrrolidin-3-yl]urea] | > 251
O=C(Nc1ccccc1Br)N[C@@H]1CCN(c2ncccc2C(F)(F)F)C1 [1-(2-bromophenyl)-3-[(3R)-1-[3-(trifluoromethyl)pyridin-2-yl]pyrrolidin-3-yl]urea] | 79
O=C(Nc1ccccc1Br)N[C@@H]1CCN(c2cc(C(F)(F)F)ccn2)C1 [1-(2-bromophenyl)-3-[(3R)-1-[4-(trifluoromethyl)pyridin-2-yl]pyrrolidin-3-yl]urea] | 126
O=C(Nc1ccccc1Br)N[C@@H]1CCN(c2ccc(C(F)(F)F)cn2)C1 [1-(2-bromophenyl)-3-[(3R)-1-[5-(trifluoromethyl)pyridin-2-yl]pyrrolidin-3-yl]urea] | 32
O=C(Nc1ccccc1Br)N[C@@H]1CCN(c2cccc(C(F)(F)F)n2)C1 [1-(2-bromophenyl)-3-[(3R)-1-[6-(trifluoromethyl)pyridin-2-yl]pyrrolidin-3-yl]urea] | 63
Cc1cccc(N2CC[C@H](NC(=O)Nc3ccccc3Br)C2)c1 [1-(2-bromophenyl)-3-[(3S)-1-(3-methylphenyl)pyrrolidin-3-yl]urea] | > 158
Cc1ccc2c(c1)CCCN2CCNC(=O)Nc1ccccc1Br [3-(2-bromophenyl)-1-[2-(6-methyl-1,2,3,4-tetrahydroquinolin-1-yl)ethyl]urea] | 40
